Measurements taken from patent US20220125959A1, “PROSTATE-SPECIFIC MEMBRANE ANTIGEN (PSMA) INHIBITORS AS DIAGNOSTIC AND RADIONUCLIDE THERAPEUTIC AGENTS” (FIVE ELEVEN PHARMA INC., priority 2019, published 2022).

Tested on: PIP tumor and PC3 tumor
Test: Biodistribution of 125I labeled compounds 17, 18, 26 and 27 in tumor bearing nude mice
Format: in vivo
Conditions: for Biodistribution: Bladder* / Biodistribution: Stomach* / Biodistribution: large intestine* / Biodistribution: small intestine*: organ with content; for PIP/blood / PIP/muscle: ratio
Procedure: Radioiodination and Purification: 100 μg of either precursor 13, 14, 22 or 23 were dissolved in 100 μL EtOH; 22 μL Na^125I (1033-1118 μCi in 0.1 N NaOH), 100 μL 1N HCl and 100 μL 3% H2O2 were added. After 15 minutes at room temperature, the reaction was stopped by adding 150 μL sat. NaHSO3. The reaction mixture was slowly added to 1.5 mL sat. NaHCO3. Vial was rinsed with 1000 μL EtOH and mixture was diluted further to 10 mL mL water. The active sample was transferred onto an activated C4 mini column. The mixture was pushed through, washed twice with 3 mL water and the product was eluted with 1 mL ACN. Added 100 μL DMSO. The mixture was concentrated to ˜100 μL and purified by HPLC (Agilent Eclipse XCD C18 150×4.6 mm, 5 μm; 4 mL/min, gradient (ACN and water; 0-1 min (20/80), 1-16 min (20/80-100/0), 16-16.5 min (100/0-20/80), 16.5-20 min 20/80) (collected every minute). The sample was blown to dryness under argon, re-dissolved in 500 μL CH2Cl2 and 1 mL TFA was added at room temperature. After 1 hr the solution was blown to dryness and activity taken into 1 mL EtOH (10 μL saturated ascorbic acid/EtOH was added). Isolated activities for [^125I]17, 18, 26, and 27 were 197, 189, 600 and 197 μCi respectively. A representative picture of HPLC profiles (FIG. 3) for radiolabeled protected (intermediate), cold standard and radioactive trace of final compound is shown for [^125I]26.
For iv injection 150 μL of labeled solution was diluted with saline to 3.75 mL. Mice were injected with 2˜3 μCi of [^125I]18, 27, 26, and 18 in 0.15 mL saline. Injected radioactivity was 2 to 3 μCi.
Biodistribution study of [^125I]18, 27, 26, and 18 in tumor bearing nude mice were evaluated for their ability to localization of PSMA positive tumor (Tables 5, 6, 7 and 8). It was observed that [^125I]26 and [^125I] […] These new agents are valuable for radionuclide therapy, when labeled with beta or alpha-emitting isotopes; but these agents will also be useful as diagnostic agents when labeled with gamma-emitting isotopes.

With `O=C(O)CC[C@H](NC(=O)N[C@@H](CCCCNC(=O)[C@H](Cc1ccccc1)NC(=O)COc1ccc(C[C@H](NC(=O)[C@H](CCC(=O)O)NC(=O)[C@H](CCC(=O)O)NC(=O)c2ccc([125I])cc2)C(=O)O)cc1)C(=O)O)C(=O)O` [[^125I]27] the “Biodistribution: Blood” value (1 h) was 0.47 ± 0.07 % ID/g, the “Biodistribution: Bone” value (1 h) was 0.94 ± 0.21 % ID/g and the “Biodistribution: Heart” value (1 h) was 2.60 ± 0.10 % ID/g. For the same compound, the “Biodistribution: Kidney” value (1 h) was 127.77 ± 8.24 % ID/g, the “Biodistribution: Liver” value (1 h) was 1.72 ± 0.11 % ID/g and the “Biodistribution: Lung” value (1 h) was 3.53 ± 1.35 % ID/g. For the same compound, the “Biodistribution: Muscle” value (1 h) was 1.05 ± 0.07 % ID/g, the “Biodistribution: PC3 tumor” value (1 h) was 1.99 ± 0.17 % ID/g and the “Biodistribution: PIP tumor” value (1 h) was 17.19 ± 3.74 % ID/g. The “Biodistribution: Pancreas” value (1 h) was 1.32 ± 0.46 % ID/g, the “Biodistribution: Skin” value (1 h) was 2.68 ± 0.47 % ID/g and the “Biodistribution: Spleen” value (1 h) was 12.25 ± 3.36 % ID/g. For the same compound, the “Biodistribution: gland” value (1 h) was 3.59 ± 1.03 % ID/g, the “Biodistribution: thyroid” value (1 h) was 39.72 ± 12.95 % ID/g and the “Biodistribution: Bladder*” value (1 h) was 53.39 ± 19.82 % ID/g. For the same compound, the “Biodistribution: Stomach*” value (1 h) was 0.55 ± 0.21 % ID/g, the “Biodistribution: large intestine*” value (1 h) was 1.13 ± 0.52 % ID/g and the “Biodistribution: small intestine*” value (1 h) was 1.52 ± 0.45 % ID/g. The PIP/blood (1 h) was 36.90 ± 8.14, the PIP/muscle (1 h) was 16.57 ± 4.28 and the “Biodistribution: Blood” value (4 h) was 0.32 ± 0.12 % ID/g. The “Biodistribution: Bone” value (4 h) was 0.56 ± 0.05 % ID/g, the “Biodistribution: Heart” value (4 h) was 1.36 ± 0.33 % ID/g and the “Biodistribution: Kidney” value (4 h) was 138.08 ± 31.03 % ID/g. For the same compound, the “Biodistribution: Liver” value (4 h) was 1.28 ± 0.63 % ID/g, the “Biodistribution: Lung” value (4 h) was 1.86 ± 0.24 % ID/g and the “Biodistribution: Muscle” value (4 h) was 0.69 ± 0.21 % ID/g. The “Biodistribution: PC3 tumor” value (4 h) was 1.67 ± 0.44 % ID/g, the “Biodistribution: PIP tumor” value (4 h) was 17.36 ± 2.57 % ID/g and the “Biodistribution: Pancreas” value (4 h) was 1.07 ± 0.31 % ID/g. The “Biodistribution: Skin” value (4 h) was 2.03 ± 0.39 % ID/g, the “Biodistribution: Spleen” value (4 h) was 13.16 ± 4.01 % ID/g and the “Biodistribution: gland” value (4 h) was 3.57 ± 0.54 % ID/g. For the same compound, the “Biodistribution: thyroid” value (4 h) was 60.34 ± 22.28 % ID/g, the “Biodistribution: Bladder*” value (4 h) was 38.17 ± 21.99 % ID/g and the “Biodistribution: Stomach*” value (4 h) was 0.96 ± 0.55 % ID/g. For the same compound, the “Biodistribution: large intestine*” value (4 h) was 1.35 ± 0.48 % ID/g, the “Biodistribution: small intestine*” value (4 h) was 0.83 ± 0.34 % ID/g and the PIP/blood (4 h) was 58.93 ± 20.54. The PIP/muscle (4 h) was 27.34 ± 10.28, the Liver uptakes (mouse, in vivo) was “low” and the “Uptakes in PIP tumors, kidneys and spleen compared to [125I]17 and [125I]18” value (mouse, in vivo) was “higher uptakes”.

`O=C(O)CC[C@H](NC(=O)N[C@@H](CCCCNC(=O)[C@H](Cc1ccccc1)NC(=O)[C@H](CCC(=O)O)NC(=O)[C@H](CCC(=O)O)NC(=O)c1ccc([125I])cc1)C(=O)O)C(=O)O` [[^125I]18] was tested, and the “Biodistribution: Blood” value (1 h) was 0.71 ± 0.31 % ID/g, the “Biodistribution: Bone” value (1 h) was 0.89 ± 0.08 % ID/g and the “Biodistribution: Heart” value (1 h) was 3.06 ± 0.48 % ID/g. For the same compound, the “Biodistribution: Kidney” value (1 h) was 96.21 ± 21.68 % ID/g, the “Biodistribution: Liver” value (1 h) was 3.57 ± 0.32 % ID/g and the “Biodistribution: Lung” value (1 h) was 3.16 ± 0.55 % ID/g. For the same compound, the “Biodistribution: Muscle” value (1 h) was 0.95 ± 0.27 % ID/g, the “Biodistribution: PC3 tumor” value (1 h) was 2.22 ± 0.58 % ID/g and the “Biodistribution: PIP tumor” value (1 h) was 13.29 ± 3.46 % ID/g. For the same compound, the “Biodistribution: Pancreas” value (1 h) was 1.66 ± 0.93 % ID/g, the “Biodistribution: Skin” value (1 h) was 1.48 ± 0.44 % ID/g and the “Biodistribution: Spleen” value (1 h) was 6.83 ± 0.46 % ID/g. For the same compound, the “Biodistribution: gland” value (1 h) was 4.03 ± 0.46 % ID/g, the “Biodistribution: thyroid” value (1 h) was 15.99 ± 1.88 % ID/g and the “Biodistribution: Bladder*” value (1 h) was 97.62 ± 20.87 % ID/g. The “Biodistribution: Stomach*” value (1 h) was 0.46 ± 0.29 % ID/g, the “Biodistribution: large intestine*” value (1 h) was 1.12 ± 0.65 % ID/g and the “Biodistribution: small intestine*” value (1 h) was 1.98 ± 0.27 % ID/g. The PIP/blood (1 h) was 21.30 ± 8.28, the PIP/muscle (1 h) was 16.14 ± 10.36 and the “Biodistribution: Blood” value (4 h) was 0.33 ± 0.17 % ID/g. The “Biodistribution: Bone” value (4 h) was 0.45 ± 0.23 % ID/g, the “Biodistribution: Heart” value (4 h) was 1.60 ± 0.46 % ID/g and the “Biodistribution: Kidney” value (4 h) was 69.39 ± 24.24 % ID/g. The “Biodistribution: Liver” value (4 h) was 2.62 ± 1.62 % ID/g, the “Biodistribution: Lung” value (4 h) was 1.50 ± 0.65 % ID/g and the “Biodistribution: Muscle” value (4 h) was 0.69 ± 0.27 % ID/g. For the same compound, the “Biodistribution: PC3 tumor” value (4 h) was 1.20 ± 0.52 % ID/g, the “Biodistribution: PIP tumor” value (4 h) was 15.27 ± 5.40 % ID/g and the “Biodistribution: Pancreas” value (4 h) was 0.89 ± 0.13 % ID/g. The “Biodistribution: Skin” value (4 h) was 0.81 ± 0.37 % ID/g, the “Biodistribution: Spleen” value (4 h) was 4.37 ± 1.70 % ID/g and the “Biodistribution: gland” value (4 h) was 2.25 ± 0.80 % ID/g. The “Biodistribution: thyroid” value (4 h) was 26.99 ± 18.70 % ID/g, the “Biodistribution: Bladder*” value (4 h) was 123.13 ± 40.10 % ID/g and the “Biodistribution: Stomach*” value (4 h) was 0.72 ± 0.76 % ID/g. For the same compound, the “Biodistribution: large intestine*” value (4 h) was 0.74 ± 0.25 % ID/g, the “Biodistribution: small intestine*” value (4 h) was 1.11 ± 0.82 % ID/g and the PIP/blood (4 h) was 50.29 ± 15.07. The PIP/muscle (4 h) was 25.78 ± 14.13 and the Liver uptakes (mouse, in vivo) was “low”.

`O=C(O)CC[C@H](NC(=O)N[C@@H](CCCCNC(=O)[C@H](Cc1ccccc1)NC(=O)[C@H](CCC(=O)O)NC(=O)c1ccc([125I])cc1)C(=O)O)C(=O)O` [[^125I]17] was tested, and the “Biodistribution: Blood” value (1 h) was 0.45 ± 0.11 % ID/g, the “Biodistribution: Bone” value (1 h) was 0.16 ± 0.02 % ID/g and the “Biodistribution: Heart” value (1 h) was 0.29 ± 0.04 % ID/g. For the same compound, the “Biodistribution: Kidney” value (1 h) was 41.44 ± 5.10 % ID/g, the “Biodistribution: Liver” value (1 h) was 2.94 ± 2.12 % ID/g and the “Biodistribution: Lung” value (1 h) was 1.15 ± 1.27 % ID/g. The “Biodistribution: Muscle” value (1 h) was 0.43 ± 0.24 % ID/g, the “Biodistribution: PC3 tumor” value (1 h) was 1.70 ± 1.33 % ID/g and the “Biodistribution: PIP tumor” value (1 h) was 10.72 ± 2.98 % ID/g. For the same compound, the “Biodistribution: Pancreas” value (1 h) was 0.55 ± 0.64 % ID/g, the “Biodistribution: Skin” value (1 h) was 0.57 ± 0.24 % ID/g and the “Biodistribution: Spleen” value (1 h) was 3.25 ± 1.52 % ID/g. For the same compound, the “Biodistribution: gland” value (1 h) was 0.81 ± 0.18 % ID/g, the “Biodistribution: thyroid” value (1 h) was 3.57 ± 0.75 % ID/g and the “Biodistribution: Bladder*” value (1 h) was 204.72 ± 108.11 % ID/g. The “Biodistribution: Stomach*” value (1 h) was 0.18 ± 0.05 % ID/g, the “Biodistribution: large intestine*” value (1 h) was 2.10 ± 1.64 % ID/g and the “Biodistribution: small intestine*” value (1 h) was 3.22 ± 1.64 % ID/g. The PIP/blood (1 h) was 23.69 ± 2.07, the PIP/muscle (1 h) was 27.52 ± 7.80 and the “Biodistribution: Blood” value (4 h) was 0.09 ± 0.03 % ID/g. The “Biodistribution: Bone” value (4 h) was 0.03 ± 0.02 % ID/g, the “Biodistribution: Heart” value (4 h) was 0.11 ± 0.07 % ID/g and the “Biodistribution: Kidney” value (4 h) was 25.41 ± 7.57 % ID/g. For the same compound, the “Biodistribution: Liver” value (4 h) was 0.48 ± 0.53 % ID/g, the “Biodistribution: Lung” value (4 h) was 0.19 ± 0.13 % ID/g and the “Biodistribution: Muscle” value (4 h) was 0.25 ± 0.44 % ID/g. For the same compound, the “Biodistribution: PC3 tumor” value (4 h) was 0.28 ± 0.10 % ID/g, the “Biodistribution: PIP tumor” value (4 h) was 5.17 ± 2.02 % ID/g and the “Biodistribution: Pancreas” value (4 h) was 0.22 ± 0.25 % ID/g. For the same compound, the “Biodistribution: Skin” value (4 h) was 0.11 ± 0.04 % ID/g, the “Biodistribution: Spleen” value (4 h) was 0.46 ± 0.27 % ID/g and the “Biodistribution: gland” value (4 h) was 0.19 ± 0.05 % ID/g. For the same compound, the “Biodistribution: thyroid” value (4 h) was 7.16 ± 1.91 % ID/g, the “Biodistribution: Bladder*” value (4 h) was 68.75 ± 30.09 % ID/g and the “Biodistribution: Stomach*” value (4 h) was 0.11 ± 0.10 % ID/g. The “Biodistribution: large intestine*” value (4 h) was 0.86 ± 0.22 % ID/g, the “Biodistribution: small intestine*” value (4 h) was 0.23 ± 0.16 % ID/g and the PIP/blood (4 h) was 62.95 ± 31.81. The PIP/muscle (4 h) was 200.29 ± 221.74 and the “Washout in PIP tumors, kidneys and spleen compared to [125I]18 and [125I]27” value (mouse, in vivo) was “significantly faster washout”.
